Legend:
Assay in all cases: relative viability (nuclei count vs DMSO), 5 days (fraction); higher = more cells survive
BAM7 + Lapatinib = compound: CCOC1=CC=CC=C1N=NC2=C(NN(C2=O)C3=NC(=CS3)C4=CC=CC=C4)C [BAM7] + CS(=O)(=O)CCNCc1ccc(-c2ccc3ncnc(Nc4ccc(OCc5cccc(F)c5)c(Cl)c4)c3c2)o1 [Lapatinib] (partner 2 µM)
Summary of the method: (§1)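 The day after seeding in 1536-well plates, lung cancer cell lines were treated by pin tool with a single drug, or with a fixed anchor-drug dose together with five library-drug doses (not always all listed) in √10 steps. After 5 days, a combined fix-and-stain solution (final 0.05% Triton X-100, 1% formaldehyde, 1 ug/ml Hoechst) was added. Nuclei counted on 4× images gave relative viability as treated counts over vehicle counts, reported as the median of duplicate plates.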

[1] = compound: CCn1c(-c2nonc2N)nc2c(C#CC(C)(C)O)ncc(OC[C@H]3CCCNC3)c21 + CC(=O)c1c(C)c2cnc(Nc3ccc(N4CCNCC4)cn3)nc2n(C2CCCC2)c1=O [Palbociclib] (partner 0.5 µM)
Summary of the method: as §1

[2] = compound: CCn1c(-c2nonc2N)nc2c(C#CC(C)(C)O)ncc(OC[C@H]3CCCNC3)c21 + CCNC(=O)c1noc(-c2cc(C(C)C)c(O)cc2O)c1-c1ccc(CN2CCOCC2)cc1 [Luminespib] (partner 0.01 µM)
Summary of the method: as §1

[3] = compound: CCn1c(-c2nonc2N)nc2c(C#CC(C)(C)O)ncc(OC[C@H]3CCCNC3)c21 + N=C(N)NC(=N)NCCc1ccccc1 [Phenformin] (partner 250 µM)
Summary of the method: as §1

| Cell Line | relative viability (BAM7 + Lapatinib; first compound 0.5 µM) | relative viability (BAM7 + Lapatinib; first compound 5 µM) | relative viability (BAM7 + Lapatinib; first compound 15.81 µM) | relative viability (BAM7 + Lapatinib; first compound 50 µM) | relative viability ([1]; first compound 0.01 µM) | relative viability ([1]; first compound 0.03162 µM) | relative viability ([1]; first compound 0.1 µM) | relative viability ([1]; first compound 0.3162 µM) | relative viability ([1]; first compound 1 µM) | relative viability ([2]; first compound 0.01 µM) | relative viability ([2]; first compound 0.03162 µM) | relative viability ([2]; first compound 0.1 µM) | relative viability ([2]; first compound 0.3162 µM) | relative viability ([2]; first compound 1 µM) | relative viability ([3]; first compound 0.01 µM) | relative viability ([3]; first compound 0.03162 µM) | relative viability ([3]; first compound 0.1 µM) | relative viability ([3]; first compound 0.3162 µM) | relative viability ([3]; first compound 1 µM) |
| --- | --- | --- | --- | --- | --- | --- | --- | --- | --- | --- | --- | --- | --- | --- | --- | --- | --- | --- | --- |
| LCLC-97TM1 | 1 | 1.21 | 1.04 | 1.31 | 0.19 | 0.245 | 0.234 | 0.205 | 0.2 | 0.707 | 0.914 | 0.609 | 0.658 | 0.741 | 0.375 | 0.49 | 0.444 | 0.435 | 0.427 |
| EPLC-272H | 0.879 | 0.924 | 0.94 | 0.963 | 0.32 | 0.371 | 0.297 | 0.281 | 0.259 | 0.228 | 0.141 | 0.311 | 0.262 | 0.309 | 0.275 | 0.333 | 0.32 | 0.291 | 0.255 |
| NCI-H1915 | 1.02 | 1.09 | 0.911 | 1.04 | 0.488 | 0.545 | 0.531 | 0.487 | 0.537 | 0.713 | 0.898 | 0.741 | 0.755 | 0.724 | 0.384 | 0.385 | 0.36 | 0.357 | 0.36 |
| NCI-H2405 | 1.1 | 1.26 | 1.12 | 1.1 | 0.52 | 0.539 | 0.472 | 0.481 | 0.511 | 0.542 | 0.793 | 0.663 | 0.647 | 0.698 | 0.402 | 0.385 | 0.295 | 0.355 | 0.344 |
| NCI-H322M | 0.659 | 0.593 | 0.577 | 0.572 | 0.456 | 0.48 | 0.487 | 0.463 | 0.475 | 0.784 | 0.847 | 0.855 | 0.665 | 0.682 | 0.717 | 0.727 | 0.677 | 0.7 | 0.744 |
| NCI-H2170 | 0.264 | 0.285 | 0.258 | 0.287 | 0.391 | 0.441 | 0.378 | 0.372 | 0.435 | 0.779 | 0.785 | 0.572 | 0.731 | 0.744 | 0.44 | 0.429 | 0.416 | 0.429 | 0.382 |
| NCI-H1395 | 0.826 | 1.03 | 1.17 | 1.33 | 0.605 | 0.527 | 0.604 | 0.495 | 0.509 | 0.78 | 0.705 | 0.546 | 0.596 | 0.695 | 0.417 | 0.416 | 0.418 | 0.376 | 0.388 |
| NCI-H358 | 0.46 | 0.522 | 0.479 | 0.568 | 0.139 | 0.147 | 0.122 | 0.151 | 0.131 | 0.375 | 0.403 | 0.279 | 0.257 | 0.419 | 0.39 | 0.321 | 0.338 | 0.315 | 0.32 |
| NCI-H838 | 1.03 | 1.04 | 0.908 | 1.14 | 0.19 | 0.221 | 0.199 | 0.172 | 0.227 | 0.309 | 0.308 | 0.296 | 0.227 | 0.304 | 0.564 | 0.557 | 0.685 | 0.521 | 0.583 |
| CAL-12T | 0.677 | 0.581 | 0.599 | 0.692 | 0.39 | 0.448 | 0.468 | 0.462 | 0.553 | 0.234 | 1.07 | 0.431 | 0.362 | 0.427 | 0.506 | 0.579 | 0.588 | 0.554 | 0.469 |

From the supplement of paper PMC10307832
